US11752139B2, “Therapeutic combinations of orally administered irinotecan and a p-gp inhibitor for the treatment of cancer” (priority 2018, dated 2023)
Several values for one entry are separate records, joined by “and”; a condition that tells them apart may be missing. Equal entries are not always repeated. Where two headings read alike, the source gives them in different places.

Experiments:
[1] = Study 1: pharmacokinetics of oral irinotecan and M1, 5-30 mg/m^2 per day for five days during a 21 day cycle; conditions: for AUC24 / Cmax: mean
[2] = for AUC24 h / Cmax / Tmax: N = 3
Protocol: A phase 1 dose escalation study was performed to determine the MTD and DLT of orally administered irinotecan in combination with 15 mg (on day 1 of a 21-day cycle) of HM30181A. The study was performed on cohorts of 3-6 subjects with advanced malignancies. Subjects had Hb (hemoglobin count) 9 gm/dL, ANC (absolute neutrophil count) 1.5×10^9/L, and platelets 100×10^9/L, as well as adequate hepatic and renal function, and ECOG (Eastern Cooperative Oncology Group Performance Status) 0-1, and were not homozygous for UGT1A1*28.

[3] = Simple Emax model of exposure (AUCinf, Cmax) versus dose
[4] = Study 2: pharmacokinetics of oral irinotecan and M1, 5-20 mg/m^2 per day for 10 days during a 21 day cycle; conditions: for AUC24 / Cmax: mean
[5] = IV dose of 340 mg/m^2; reference line of FIG. 5A; cited from earlier work
[6] = dose 240 mg/m^2 oral irinotecan + 15 mg HM30181A
[7] = dose 280 mg/m^2 oral irinotecan + 15 mg HM30181A
[8] = dose 320 mg/m^2 oral irinotecan + 15 mg HM30181A
[9] = Tablet, dose 120 (mg), Mean (CV %), N 3, plasma
[10] = Tablet, dose 160 (mg), Mean (CV %), N 3, plasma
[11] = Tablet, dose 200 (mg), Mean (CV %), N 3, plasma
[12] = Tablet, dose 240 (mg), Mean (CV %), N 3, plasma
[13] = Tablet, dose 280 (mg), Mean (CV %), N 3, plasma
[14] = Tablet, dose 320 (mg), Mean (CV %), N 3, plasma
[15] = single oral dose 240 mg/m^2, individual subjects 1-3, plasma
[16] = single oral dose 280 mg/m^2, individual subjects 4-6, plasma
[17] = single oral dose 320 mg/m^2, individual subjects 7-9, plasma

CCc1c2c(nc3ccc(O)cc13)-c1cc3c(c(=O)n1C2)COC(=O)[C@]3(O)CC [Compound M1]
pharmacokinetics versus dose ([1]; 5-30 mg/m^2 per day for five days during a 21 day cycle): increased proportionally with dose
AUC24 ([1]; Day 1, dose group 5 mg/m^2): 49.83 ng·h/mL
Cmax ([1]; Day 1, dose group 5 mg/m^2): 6.07 ng/mL
AUC24 ([1]; Day 1, dose group 10 mg/m^2): 46.04 ng·h/mL
Cmax ([1]; Day 1, dose group 10 mg/m^2): 7.84 ng/mL
AUC24 ([1]; Day 1, dose group 15 mg/m^2): 50.29 ng·h/mL
Cmax ([1]; Day 1, dose group 15 mg/m^2): 5.33 ng/mL
AUC24 ([1]; Day 1, dose group 20 mg/m^2): 63.56 ng·h/mL
Cmax ([1]; Day 1, dose group 20 mg/m^2): 8.92 ng/mL
AUC24 ([1]; Day 1, dose group 25 mg/m^2): 143.97 ng·h/mL
Cmax ([1]; Day 1, dose group 25 mg/m^2): 17.10 ng/mL
AUC24 ([1]; Day 1, dose group 30 mg/m^2): 83.64 ng·h/mL
Cmax ([1]; Day 1, dose group 30 mg/m^2): 7.31 ng/mL
AUC24 ([1]; Day 5, dose group 5 mg/m^2): 68.61 ng·h/mL
Cmax ([1]; Day 5, dose group 5 mg/m^2): 5.84 ng/mL
AUC24 ([1]; Day 5, dose group 10 mg/m^2): 51.40 ng·h/mL
Cmax ([1]; Day 5, dose group 10 mg/m^2): 6.15 ng/mL
AUC24 ([1]; Day 5, dose group 15 mg/m^2): 118.29 ng·h/mL
Cmax ([1]; Day 5, dose group 15 mg/m^2): 11.14 ng/mL
AUC24 ([1]; Day 5, dose group 20 mg/m^2): 119.38 ng·h/mL
Cmax ([1]; Day 5, dose group 20 mg/m^2): 11.73 ng/mL
AUC24 ([1]; Day 5, dose group 25 mg/m^2): 178.58 ng·h/mL
Cmax ([1]; Day 5, dose group 25 mg/m^2): 14.93 ng/mL
AUC24 ([1]; Day 5, dose group 30 mg/m^2): 308.27 ng·h/mL
Cmax ([1]; Day 5, dose group 30 mg/m^2): 13.44 ng/mL
AUC24 h [2, 6]: 264 ng·h/mL
Cmax [2, 6]: 28.3 ng/mL
Tmax [2, 6]: 3.0 h
AUC24 h [2, 7]: 293 ng·h/mL
Cmax [2, 7]: 37.6 ng/mL
AUC24 h [2, 8]: 300 ng·h/mL
Cmax [2, 8]: 38.5 ng/mL
Tmax [2, 8]: 2.0 h
concentrations of SN-38 reached ([2]; oral administration of HM30181A in combination with irinotecan tablets): pharmacologically active concentrations
Predicted AUCinf ([3]; dose 200 mg/m^2): 423
Predicted Cmax ([3]; dose 200 mg/m^2): 29.2
Predicted AUCinf ([3]; dose 240 mg/m^2): 464
Predicted Cmax ([3]; dose 240 mg/m^2): 31.9
Predicted AUCinf ([3]; dose 280 mg/m^2): 499
Predicted Cmax ([3]; dose 280 mg/m^2): 34.1
Predicted AUCinf ([3]; dose 320 mg/m^2): 528
Predicted Cmax ([3]; dose 320 mg/m^2): 38.8
pharmacokinetics versus dose ([4]; 5-20 mg/m^2 per day for 10 days during a 21 day cycle): increased proportionally with dose
AUC24 ([4]; Day 1, dose group 5 mg/m^2): 41.40 ng·h/mL
Cmax ([4]; Day 1, dose group 5 mg/m^2): 7.08 ng/mL
AUC24 ([4]; Day 1, dose group 10 mg/m^2): 43.34 ng·h/mL
Cmax ([4]; Day 1, dose group 10 mg/m^2): 5.04 ng/mL
AUC24 ([4]; Day 1, dose group 15 mg/m^2): 85.61 ng·h/mL
Cmax ([4]; Day 1, dose group 15 mg/m^2): 10.19 ng/mL
AUC24 ([4]; Day 1, dose group 20 mg/m^2): 54.44 ng·h/mL
Cmax ([4]; Day 1, dose group 20 mg/m^2): 4.15 ng/mL
AUC24 ([4]; Day 12, dose group 5 mg/m^2): 42.53 ng·h/mL
Cmax ([4]; Day 12, dose group 5 mg/m^2): 6.10 ng/mL
AUC24 ([4]; Day 12, dose group 10 mg/m^2): 38.17 ng·h/mL
Cmax ([4]; Day 12, dose group 10 mg/m^2): 4.04 ng/mL
AUC24 ([4]; Day 12, dose group 15 mg/m^2): 144.14 ng·h/mL
Cmax ([4]; Day 12, dose group 15 mg/m^2): 18.00 ng/mL
AUC24 ([4]; Day 12, dose group 20 mg/m^2): 71.97 ng·h/mL
Cmax ([4]; Day 12, dose group 20 mg/m^2): 7.63 ng/mL
AUC0-inf (Tablet, dose 120 (mg), Mean (CV %), N 2, plasma): 274 (18.3) ng*hr/mL
AUC0-24 [9]: 168 (32.9) ng*hr/mL
Cmax [9]: 23.1 (58.4) ng/mL
Tlast [9]: 56.0 h
Tmax* (Tablet, dose 120 (mg), N 3, plasma): 3.00 h
AUC0-24 [10]: 156 (22.6) ng*hr/mL
AUC0-inf [10]: 235 (13.4) ng*hr/mL
Cmax [10]: 25.0 (58.1) ng/mL
Tlast [10]: 48.0 (21.7) hr
Tmax* (Tablet, dose 160 (mg), N 3, plasma): 3.00 h
AUC0-24 [11]: 185 (66.3) ng*hr/mL
AUC0-inf [11]: 468 (90.0) ng*hr/mL
Cmax [11]: 23.0 (102) ng/mL
Tlast [11]: 88.0 (83.3) hr
Tmax* (Tablet, dose 200 (mg), N 3, plasma): 3.00 h
AUC0-24 [12]: 264 (66.4) ng*hr/mL
Cmax [12]: 28.3 (67.3) ng/mL
Tlast [12]: 96.0 (66.1) hr
AUC0-inf (Tablet, dose 240 (mg), N 1, plasma): 224 ng·h/mL
Tmax* (Tablet, dose 240 (mg), N 3, plasma): 3.00 h
AUC0-24 [13]: 293 (60.0) ng*hr/mL
AUC0-inf [13]: 468 (67.3) ng*hr/mL
Cmax [13]: 37.6 (42.4) ng/mL
Tlast [13]: 72.0 (0) hr
Tmax* (Tablet, dose 280 (mg), N 3, plasma): 1.5 h
AUC0-24 [14]: 300 (42.3) ng*hr/mL
Cmax [14]: 38.5 (58.7) ng/mL
Tlast [14]: 72.0 (0) hr
AUC0-inf (Tablet, dose 320 (mg), N 1, plasma): 349 ng·h/mL
Tmax* (Tablet, dose 320 (mg), N 3, plasma): 2.00 h
Observed Mean (Cmax) (dose 200 mg/m^2): 23 ng/mL
Observed Mean AUCinf (dose 200 mg/m^2): 468 ng·h/mL
Observed Mean (Cmax) (dose 240 mg/m^2): 28.3 ng/mL
Observed Mean AUCinf (dose 240 mg/m^2): 224 ng·h/mL
Observed Mean (Cmax) (dose 280 mg/m^2): 37.6 ng/mL
Observed Mean AUCinf (dose 280 mg/m^2): 468 ng·h/mL
Observed Mean (Cmax) (dose 320 mg/m^2): 38.7 ng/mL
Observed Mean AUCinf (dose 320 mg/m^2): 349 ng·h/mL
subjects with M1 exposures (AUC24) comparable between oral irinotecan and IV irinotecan (dose level of 200 mg/m^2 and above): 4 of 9
M1 Cmax compared with IV irinotecan (oral solution administration): within the range of 125 mg/m^2 dosed IV irinotecan
early enterohepatic recycling (EHR) in plasma concentration profile, time (plasma): 5.5 h
possible enterohepatic recycling (EHR) in plasma concentration profile, time (plasma): 50 h
AUC24 [15]: 133 ng·h/mL and 463 ng·h/mL and 195 ng·h/mL
AUCinf [15]: 224 ng·h/mL
AUClast [15]: 185 ng·h/mL and 636 ng·h/mL and 376 ng·h/mL
Cmax [15]: 17.1 ng/mL and 50.3 ng/mL and 17.5 ng/mL
Tlast [15]: 48 h and 168 h and 72 h
Tmax [15]: 3 h
AUC24 [16]: 497 ng·h/mL and 190 ng·h/mL and 194 ng·h/mL
AUCinf [16]: 831 ng·h/mL and 273 ng·h/mL and 300 ng·h/mL
AUClast [16]: 783 ng·h/mL and 256 ng·h/mL and 282 ng·h/mL
Cmax [16]: 55.4 ng/mL and 33.0 ng/mL and 24.5 ng/mL
Tlast [16]: 72 h
Tmax [16]: 1 h and 1.5 h and 3 h
AUC24 [17]: 212 ng·h/mL and 445 ng·h/mL and 242 ng·h/mL
AUCinf [17]: 349 ng·h/mL
AUClast [17]: 322 ng·h/mL and 713 ng·h/mL and 410 ng·h/mL
Cmax [17]: 28.1 ng/mL and 64.8 ng/mL and 23.2 ng/mL
Tlast [17]: 72 h
Tmax [17]: 1.5 h and 2 h and 3 h
M1 Cmax compared with IV irinotecan (tablet formulation, FIG. 5B): in a range of that observed with IV irinotecan dosage of 340 mg/m^2

CCc1c2c(nc3ccc(OC(=O)N4CCC(N5CCCCC5)CC4)cc13)-c1cc3c(c(=O)n1C2)COC(=O)[C@]3(O)CC [IV dosed irinotecan]
Cmax [5]: 3392 ng/mL
